# Measured values published in patent US20080019909A1, “Modulation of Programmed Necrosis” (priority 2003, published 2008).
# Entries after “also recorded” stand apart in the source; their conditions may differ.
# Legend:
# [1] = test system: RIP; assay: Western blot of RIP cleavage in TNF or anti-Fas stimulated wild-type 4E3 cells; assay type: cell-based; conditions: six hours, C-terminal specific RIP antibody
# Method: FIG. 4A is a Western blot showing the results of experiments in which wild-type 4E3 cells (WT) and J3.2 cells (Casp-8 -/-) cells Were treated with various combinations of rhTNFα, Apo-1 (anti-Fas), and zVAD-fmk for six hours before whole cell lysates were harvested.
# [2] = test system: caspase-8 -/- J3.2 cells; assay: TNF cytotoxic assay (cell loss by PI exclusion on FACS), caspase-8 -/- J3.2 cells; conditions: caspase-8 -/- J3.2 cells; rhTNF 15-16 hours; zVAD-fmk or 0.5 mM GA pretreatment
# [3] = test system: TNFR-2+ RIP -/- Jurkat cells (R1.1); assay: TNF cytotoxic assay (cell loss by PI exclusion on FACS), TNFR-2+ RIP -/- cells; assay type: cell-based
# Excerpt: The results are representative of three experiments.
# [4] = test system: TNFR-2-expressing wild-type (4E3) Jurkat cells
# Method: Cells were harvested and analyzed by PI exclusion on FACS 16 hours post-stimulation and cell loss was calculated as described in Example 1 (infra).
# [5] = test system: FADD -/- I42 cells; assay: TNF cytotoxic assay (cell loss by PI exclusion on FACS), FADD -/- I42 cells; assay type: cell-based; conditions: FADD -/- I42 cells; TNF 16 hours; zVAD-fmk or GA
# Method: Cells were stimulated with, TNF or anti-Fas antibody (CH11) for 12 hours and cell loss was analyzed on the GFP+ cells by PI exclusion on FACS.
# FIG. 8F is a bar graph depicting the results of experiments in which FADD -/- I42 cells and caspase-8 -/- J3.2 cells (both are TNFR-2+) were stimulated with TNF in the presence or absence of zVAD-fmk for 16 hours.
substance,measurement,setting,value
z-Val-Ala-Asp-fluoromethyl ketone [zVAD-fmk],RIP cleavage,[1],potently inhibited
same,TNF-induced programmed necrosis (cell loss),[2],failed to provide any protection; also recorded: not blocked
same,TNF-induced death (cell loss),"[3]; TNFR-2+ RIP -/- cells (R1.1), 10 ng/ml rhTNFα, 16 hours, 50 mM zVAD-fmk or 0.5 mM GA",completely inhibited
same,"TNF killing restored by K45A or RIPc, in the presence of zVAD-fmk",[3]; TNFR-2+ RIP -/- cells reconstituted with kinase inactive (K45A) RIP or RIPc,potently inhibited
same,"cell viability, compound alone",[4],no effect
same,"TNF-induced death (cell loss), zVAD-fmk plus GA together","[4]; wild-type 4E3 cells, 10 ng/ml rhTNFα with zVAD-fmk plus GA, 16 hours",synergized to completely suppress
same,"TNF-induced death (cell loss), single agent","[4]; wild-type 4E3 cells, 10 ng/ml rhTNFα, 16 hours, or 0.5 mM GA",partial protective effect
same,TNF-induced programmed necrosis (cell loss),[5],failed to provide any protection; also recorded: not blocked
